Entries after “also recorded” stand apart in the source; their conditions may differ.
Key:
Type in all cases: cell-based
S. aureus UAMS-1 = experiment: Bactericidal test in overnight culture (Example 5, FIG. 4); details: 200 mM
Procedure: S. aureus UAMS-1 was started from a static overnight, grown for 3 hours, then 0.2 mL was added to 3 different 50 mL cultures for control, CRN and CEE. These were shaken 30 min. at 37° C., an aliquot was removed prior to the addition of a precursor of antibacterially-activated CRN, CEE, or antibacterially-activated CRN, and the starting titer was determined. Powdered CEE or crystal CRN was added directly to the 50 mL cultures to a final concentration of 200 mM. The cultures were shaken overnight and the absorbance (A) and colony forming units (cfu) were determined.

[1] = system: Escherichia coli beta lactamase producer (ESBL); details: E. coli ESBL; 50 mg anhydrous topical cream with 28% by weight agent; gentamicin 10 μg disc
Procedure: (§1) This testing involved the use of 50 mg of an anhydrous topical cream containing the antibacterial agent of the invention in an amount of 28% by weight and 10 μg of gentamicin, impregnated into a standard commercially available disc (Remel, Lenoxa Kans.).

S. aureus [2] = experiment: Growth in Lederberg's broth with CEE at different concentrations (Example 3, FIG. 2A); details: inoculum 10^4/mL, 37° C., absorbance over time
Procedure: The CEE precursor of antibacterially-activated CRN was diluted at different concentrations into Lederberg's broth (LB), which was then inoculated to 10^4/mL with S. aureus. The cultures were incubated in capped plastic tubes at 37° C. and aerated by tumbling using a tube rotating device.

S. aureus [3] = experiment: Disc diffusion assay, different carrier media (Example 2); details: 28% by weight agent, approx. 50 μL
Procedure: For purposes of the experiments described below, test compositions were prepared by admixing antibacterially-activated creatinine (CRN) or a precursor of antibacterially-activated CRN, i.e., creatine ethyl ester (CEE), as required for the experiment at hand, with a weighed amount of a suitable carrier medium to give a final concentration of 28% by weight of the antibacterial agent, based on the total weight of the composition.
Antibacterial compositions were prepared following this procedure using a number of different aqueous and non-aqueous (anhydrous) carrier media, and evaluated for antibacterial activity in a standard disc diffusion assay. Thus, approximately 50 μL of each selected carrier containing 28% by weight of either a precursor of antibacterially-activated CRN, CEE, or antibacterially-activated CRN was added to a 6 mm disc and inverted onto a brain heart infusion agar plate that was previously spread with S. aureus at 10^5 organisms per mL. Plates were incubated at 37° C. overnight and the clear zones showing inhibition of bacterial growth were measured.

[4] = system: Saccharomyces sp. isolate from baker's yeast; experiment: Disc diffusion assay, CEE vs gentamicin; details: 50 mg anhydrous topical cream with 28% by weight agent
Procedure: as §1

[5] = system: Staphylococcus aureus methicillin resistant (MRSA); experiment: Disc diffusion assay, CEE vs gentamicin; details: S. aureus MRSA; 50 mg anhydrous topical cream with 28% by weight agent; gentamicin 10 μg disc
Procedure: as §1

[6] = system: Bacillus subtilis laboratory strain; experiment: Disc diffusion assay, CEE vs gentamicin; details: B. subtilis laboratory strain; 50 mg anhydrous topical cream with 28% by weight agent
Procedure: as §1

[7] = system: Rhodotorula sp. laboratory isolate; experiment: Disc diffusion assay, CEE vs gentamicin; details: 50 mg anhydrous topical cream with 28% by weight agent
Procedure: as §1

[8] = system: Escherichia coli laboratory strain 35150; experiment: Disc diffusion assay, CEE vs gentamicin; details: E. coli laboratory strain 35150; 50 mg anhydrous topical cream with 28% by weight agent; gentamicin 10 μg disc
Procedure: as §1

[9] = system: Candida albicans laboratory strain 24433; experiment: Disc diffusion assay, CEE vs gentamicin; details: C. albicans laboratory strain 24433; 50 mg anhydrous topical cream with 28% by weight agent; gentamicin 10 μg disc
Procedure: as §1

[10] = system: Staphylococcus aureus UMSA-1 isolate; experiment: Disc diffusion assay, CEE vs gentamicin; details: S. aureus UMSA-1 isolate; 50 mg anhydrous topical cream with 28% by weight agent
Procedure: as §1

[11] = system: Enterococcus faecalis laboratory strain 29212; experiment: Disc diffusion assay, CEE vs gentamicin; details: E. faecalis laboratory strain 29212; 50 mg anhydrous topical cream with 28% by weight agent; gentamicin 10 μg disc
Procedure: as §1

[12] = system: Staphylococcus aureus laboratory strain 29213; experiment: Disc diffusion assay, CEE vs gentamicin; details: S. aureus laboratory strain 29213; 50 mg anhydrous topical cream with 28% by weight agent; gentamicin 10 μg disc
Procedure: as §1

[13] = system: Brevibacterium linens ATCC 9175; experiment: Disc diffusion assay, CEE vs gentamicin; details: B. linens ATCC 9175; 50 mg anhydrous topical cream with 28% by weight agent
Procedure: as §1

[14] = system: Staphylococcus epidermidis laboratory strain; experiment: Disc diffusion assay, CEE vs gentamicin; details: S. epidermidis laboratory strain; 50 mg anhydrous topical cream with 28% by weight agent
Procedure: as §1

[15] = system: Micrococcus luteus laboratory isolate; experiment: Disc diffusion assay, CEE vs gentamicin; details: M. luteus laboratory isolate; 50 mg anhydrous topical cream with 28% by weight agent
Procedure: as §1

[16] = system: Pseudomonas aeruginosa high level resistance (HLR); experiment: Disc diffusion assay, CEE vs gentamicin; details: P. aeruginosa HLR; 50 mg anhydrous topical cream with 28% by weight agent; gentamicin 10 μg disc
Procedure: as §1

[17] = system: Acinetobacter baumannii high level resistance (HLR); experiment: Disc diffusion assay, CEE vs gentamicin; details: A. baumannii HLR; 50 mg anhydrous topical cream with 28% by weight agent; gentamicin 10 μg disc
Procedure: as §1

[18] = system: Enterococcus faecium vancomycin resistant (VRE); experiment: Disc diffusion assay, CEE vs gentamicin; details: E. faecium VRE; 50 mg anhydrous topical cream with 28% by weight agent; gentamicin 10 μg disc
Procedure: as §1

[19] = system: Pseudomonas fluorescens laboratory strain; experiment: Disc diffusion assay, CEE vs gentamicin; details: P. fluorescens laboratory strain; 50 mg anhydrous topical cream with 28% by weight agent
Procedure: as §1

[20] = system: Bacillus cereus laboratory strain; experiment: Disc diffusion assay, CEE vs gentamicin; details: B. cereus laboratory strain; 50 mg anhydrous topical cream with 28% by weight agent
Procedure: as §1

Structure (SMILES): CCOC(=O)CN(C)C(=N)N [CEE, creatine ethyl ester]
- colonies from 1 mL of treated culture plated on solid media (S. aureus UAMS-1; overnight culture, 48 hours incubation of plates, control 3×10^9 per mL): no colonies
- bactericidal action for S. aureus (S. aureus UAMS-1; starting at about 1×10^3 organisms per mL): bacteriocidal; also recorded: bactericidal
- Zone of Inhibition [1]: 19 mm
- concentration that inhibited growth of S. aureus (S. aureus [2]): approximately 32 mM
- Zone of Inhibition (S. aureus [3]; carrier hydrogel): 20 mm
- Zone of Inhibition (S. aureus [3]; carrier mineral oil): 21 mm
- Zone of Inhibition (S. aureus [3]; carrier pharmaceutical grade Lipoil (lecithin and isopropyl palmitate)): 12 mm
- Zone of Inhibition (S. aureus [3]; carrier pharmaceutical topical formulation (proprietary blend)): 26 mm
- Zone of Inhibition (S. aureus [3]; carrier polyethylene glycol 200): 18 mm
- Zone of Inhibition (S. aureus [3]; carrier polyethylene glycol 400): 14 mm
- Zone of Inhibition (S. aureus [3]; carrier red palm oil): 15 mm
- Zone of Inhibition (S. aureus [3]; carrier water/25% glycerol): 15 mm
- Zone of Inhibition (S. aureus [3]; carrier water/50% glycerol): 15 mm
- Zone of Inhibition (S. aureus [3]; carrier water): 9 mm
- Zone of Inhibition (S. aureus [3]; carrier white palm oil/corn oil (50% ea)): 17 mm
- Zone of Inhibition (S. aureus [3]; carrier white palm oil): 12 mm
- Zone of Inhibition [4]: 0 mm
- Zone of Inhibition [5]: 27 mm
- Zone of Inhibition [6]: 20 mm
- Zone of Inhibition [7]: 0 mm
- Zone of Inhibition [8]: 15 mm
- Zone of Inhibition [9]: 0 mm
- Zone of Inhibition [10]: 24 mm
- Zone of Inhibition [11]: 19 mm
- Zone of Inhibition [12]: 26 mm
- Zone of Inhibition [13]: 40 mm
- Zone of Inhibition [14]: 27 mm
- Zone of Inhibition [15]: 22 mm
- Zone of Inhibition [16]: 25 mm
- Zone of Inhibition [17]: 16 mm
- Zone of Inhibition [18]: 18 mm
- Zone of Inhibition [19]: 18 mm
- Zone of Inhibition [20]: 22 mm

Reference: patent US20130243847A1, “ACTIVATED CREATININE AND PRECURSORS THEREOF AS ANTIBACTERIAL AGENTS, COMPOSITIONS AND PRODUCTS CONTAINING SUCH AGENTS AND USE THEREOF” (BOARD OF REGENTS OF THE UNIVERSITY OF NEBRASKA, priority 2010, published 2013)
